Source: US20080214563A1, “Benzimidazole Thiophene Compounds As Plk Modulators” (priority 2005, published 2008)

What was measured:
[1] = test system: Normal human foreskin fibroblasts (HFF); assay: Methylene Blue Cell Growth Inhibition Assay, HFF; format: cell-based; conditions: Fibroblast, 72 h, read-out: MEB HFF IC50
Procedure: (§1) Normal human foreskin fibroblasts (HFF), human colon (HCT116, RKO), lung (H460, A549) and breast (MCF7) tumor cell lines were cultured in high glucose DMEM (Life Technologies) containing 10% fetal bovine serum (FBS) at 37° C. in a humidified 5% CO2, 95% air incubator. Cells were harvested using trypsin/EDTA, counted using a haemocytometer, and plated in 100 μL of culture media per well, at the following densities, in a 96-well tissue culture plate (Falcon 3075): HFF 5,000 cells/well, HCT116 3,000 cells/well, RKO 2,500 cells/well, H460 2,500 cells/well, A549 5,000 cells/well, MCF7 4,000 cells/well. The next day, compounds were diluted in low glucose DMEM containing 100 μg/mL gentamicin, at twice the final required concentration, from 10 mM stock solutions in DMSO. 100 μL/well of these dilutions were added to the 100 μL of media currently in the assay plates. Medium containing 0.6% DMSO was added to control wells. The final concentration of DMSO in all wells was 0.3%. Cells were incubated at 37° C., 5% CO2 for 72 h. Medium was removed by aspiration. Cell biomass was estimated by staining cells with 80 μL per well methylene blue (Sigma M9140, 0.5% in 50:50 ethanol:water), and incubation at room temperature for 30-60 min. Stain was removed by aspiration and the plates rinsed by immersion in water, then air-dried. To release stain from the cells, 100 μL of solubilization solution was added (1% N-lauroyl sarcosine, Sodium salt, Sigma L5125, in PBS), and plates were shaken gently for about 30 min. Optical density at 620 nm was measured on a microplate reader. Percent inhibition of cell growth was calculated relative to vehicle treated control wells. Concentration of compound that inhibits 50% of cell growth (IC50) was interpolated using nonlinear regression (Levenberg-Marquardt) and the equation, y=Vmax*(1−(x/(K+x)))+Y2, where “K” was equal to the IC50.

HCT-116 = assay: Cell-Titer Glo Cell Growth Inhibition Assay, HCT116; format: cell-based; conditions: Homo sapiens, CellTiter-Glo, 72 h, read-out: CTG HCT116 IC50
Procedure: A549-L (human lung), BT474 (human breast), Colo 205 (human colon), H1299 (human lung), Hela (human cervix), HCT-116 (human colon), HN5 (human head and neck), HT29 (human colon), LNCap (human prostate), MCF7 (human breast), MDA-MB468 (human breast), MX-1 (human breast), RPMI 8226 (human peripheral blood), SKOV3 (human ovary) and P388 (murine leukemia) cell lines were cultured in RPMI1640 containing 10% fetal bovine serum at 37° C. in a 5% CO2 incubator. Cell lines were split into T75 flasks (Falcon #353136) two to three days prior to assay set up at density which yields approximately 70-80% confluency at time of harvest for assay. Cells were harvested using 0.25% trypsin with EDTA (Glibco/Invitrogen #25200-056), Cell counts were performed on cell suspensions using Trypan Blue exclusion staining, cells were then plated in 105 uL of culture media per well at the following densities in 96 well Costar #3916 black flat bottom plates: All human cell lines were plated at 500 cells/well. P388 were plated at 250 cells/well. All plates were placed at 5% CO2 37° C. overnight and then test compounds were added the following day. One plate of each cell type is treated with CellTiter-Glo (Promega #G7573) for a day 0 proliferation measurement and read as described below. The test compounds are prepared in clear U bottom polypropylene 96 well plates (Falcon #35-1190 with consecutive two fold dilutions. 9 uL of these dilutions was added into each well of the cell plates. The final concentration of DMSO in all wells is 0.15%. Cells were incubated at 37° C., 5% CO2 for 72 h. Following 72 h of incubation with compounds each plate was developed and read. CellTiter-Glo reagent was added to assay plates using a volume equivalent to the cell culture volume in the wells. Plates were shaken for approximately two minutes and incubated at room temperature for approximately 15 min and the chemiluminescent signal is read on the Victor V or Envison 2100 reader. […] Concentration of compound that inhibited 50% of cell growth (IC50) was analysis by 4 or 6 parameter fit of data using XLfit, value of no cell addition was subtracted from all samples for background.

H460 = assay: Methylene Blue Cell Growth Inhibition Assay, H460; format: cell-based; conditions: Homo sapiens, NCI-H460, 72 h, read-out: MEB H460 IC50
Procedure: as §1

[2] = Intravenous pharmacokinetics in CD-1 mouse; format: in vivo; conditions: plasma, iv bolus, male CD-1 mouse, dose 1.9-7.4 mg/kg per compound (Table 3)
Procedure: Preliminary investigation of the intravenous pharmacokinetics of compounds of invention were carried out in fed conscious CD-1 mouse. Compounds were formulated as 1-10 mg/kg, 5 mL/kg, 1-2 mg/mL solution (Table 3). Twenty one male mice (n=3 mice per time point) (˜30 g) received dose solution by bolus injection in the tail vein. The formulation for iv were either 20% beta cyclodextrin in saline pH 3.5-6 or PEG400:ethanol:saline (50:15:35 v/v). Blood samples (˜0.4 mL) were collected terminally by cardiac puncture following anesthetization in a CO2 chamber at 2, 15, 30, 60 min, 2, 4, and 6 h following iv administration. Blood samples were collected into tubes containing heparin and placed on crushed ice promptly after collection. Plasma was collected by centrifugation, frozen and stored at about −80° C. prior to analysis. Blood or plasma concentrations were determined by LC/MS/MS equipped with an electrospray ion source and using calibration curves for the appropriate matrix. The lower level of quantitation (LLQ) was 10 ng/mL. Blood or plasma concentration-time data were analyzed by non-compartmental methods using the computer program WinNonlin Professional (version 4.1). Area under the blood or plasma concentration-time curve (AUC) was calculated using the linear trapezoidal rule for each incremental trapezoid up to Cmax, and the log trapezoidal rule for each trapezoid thereafter. The terminal elimination rate constant (λz) was derived from the log-linear disposition phase of the concentration-time curve using least-squares regression analysis with visual inspection of the data to determine the appropriate number of terminal data points for regression analysis.
Following iv administration, the total body clearance (CL) was estimated. CL was calculated by dividing the dose by AUC(0−t). The clearance values were assigned as follows. Low <30 mL/min/kg, moderate 30-70 mL/min/kg, high >70 mL/min/kg. The assignment was based on hepatic blood flow i.e. hepatic blood flow of 0-30% low, 30-70% moderate and 70-100% high. The hepatic blood flow in mouse is ˜100 mL/min/kg.

RKO = assay: Methylene Blue Cell Growth Inhibition Assay, RKO; format: cell-based; conditions: Homo sapiens, 72 h, read-out: MEB RKO IC50
Procedure: as §1

HCT116 = assay: Methylene Blue Cell Growth Inhibition Assay, HCT116; format: cell-based; conditions: Homo sapiens, HCT-116, 72 h, read-out: MEB HCT116 IC50
Procedure: as §1

A549 = assay: Methylene Blue Cell Growth Inhibition Assay, A549; format: cell-based; conditions: Homo sapiens, 72 h, read-out: MEB A549 IC50
Procedure: as §1

MX-1 = assay: Methylene Blue Cell Growth Inhibition Assay, MX-1; format: cell-based; conditions: Homo sapiens, MX1, 72 h, read-out: MEB MX-1 IC50
MCF7 = assay: Methylene Blue Cell Growth Inhibition Assay, MCF7; format: cell-based; conditions: Homo sapiens, 72 h, read-out: MEB MCF7 IC50
Procedure: as §1

PLK1 kinase domain = molecular target: T1, PLK1 kinase domain (Homo sapiens, UniProt P53350); assay: Assay for Inhibition of PLK1 (33P SPA kinase assay); format: biochemical; conditions: 2 nM PLK1 kinase domain, 1 μM ATP; read-out: PLK1 pIC50 (converted)
T1 construct: made in house; host or cells: baculovirus infected T. ni cells
T1 sequence (P53350 21-346): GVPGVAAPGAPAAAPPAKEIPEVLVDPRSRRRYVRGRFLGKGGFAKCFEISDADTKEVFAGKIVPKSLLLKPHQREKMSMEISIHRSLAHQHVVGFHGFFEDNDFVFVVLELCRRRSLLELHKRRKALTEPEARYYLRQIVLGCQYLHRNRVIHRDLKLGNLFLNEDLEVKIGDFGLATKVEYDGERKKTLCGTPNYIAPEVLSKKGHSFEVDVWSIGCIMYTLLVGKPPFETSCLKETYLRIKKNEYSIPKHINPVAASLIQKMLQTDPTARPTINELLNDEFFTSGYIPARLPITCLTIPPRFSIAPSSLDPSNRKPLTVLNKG
Procedure: All procedures were performed at 4° C. Cells were lysed in 50 mM HEPES, 200 mM NaCl, 50 mM imidazole, 5% glycerol; pH 7.5. The homogenate was centrifuged at 14K rpm in a SLA-1500 rotor for 1 h and the supernatant filtered through a 1.2 micron filter. The supernatant was loaded onto a Nickel chelating Sepharose (Amersham Pharmacia) column and washed with lysis buffer. Protein was eluted using 20%, 30% and 100% buffer B steps where buffer B is 50 mM HEPES, 200 mM NaCl, 300 mM imidazole, 5% glycerol; pH 7.5. Fractions containing PLK were determined by SDS-PAGE. Fractions containing PLK were diluted five-fold with 50 mM HEPES, 1 mM DTT, 5% glycerol; pH 7.5, then loaded on an SP Sepharose (Amersham Pharmacia) column. After washing the column with 50 mM HEPES, 1 mM DTT, 5% glycerol; pH 7.5, PLK was step eluted with 50 mM HEPES, 1 mM DTT, 500 mM NaCl; 5% glycerol; pH 7.5. PLK was concentrated using a 10 kDa molecular weight cutoff membrane and then loaded onto a Superdex 200 gel filtration (Amersham Pharmacia) column equilibrated in 25 mM HEPES, 1 mM DTT, 500 mM NaCl, 5% glycerol; pH 7.5. Fractions containing PLK were determined by SDS-PAGE. PLK was pooled, aliquoted and stored at −80° C. Samples were quality controlled using mass spectrometry, N-terminal sequencing and amino acid analysis.
B. Enzyme activity +/− inhibitors was determined as follows:
All measurements were obtained under conditions where signal production increased linearly with time and enzyme. Test compounds were added to white 384-well assay plates (0.1 μL for 10 μL and some 20 μl assays, 1 μL for some 20 μL assays) at variable known concentrations in 100% DMSO. DMSO (1-5% final, as appropriate) and EDTA (65 mM in reaction) were used as controls.
Reaction Mix (10 or 20 μL) was quickly added to each well immediately following addition of enzyme via automated liquid handlers and incubated 1-1.5 h at 22° C. The 20 μL enzymatic reactions were stopped with 50 μL of stop mix (50 mM EDTA, 4.0 mg/mL Streptavidin SPA beads in Standard Dulbecco's PBS (without Mg^2+ and Ca^2+), 50 μM ATP) per well. The 10 μL reactions were stopped with 10 μL of stop mix (50 mM EDTA, 3.0 mg/mL Streptavidin-coupled SPA Imaging Beads (“LeadSeeker”) in Standard Dulbecco's PBS (without Mg^2+ and Ca^2+), 50 μM ATP) per well. Plates were sealed with clear plastic seals, spun at 500×g for 1 min or settled overnight, and counted in Packard TopCount for 30 seconds/well (regular SPA) or imaged using a Viewlux imager (LeadSeeker SPA). Signal above background (EDTA controls) was converted to percent inhibition relative to that obtained in control (DMSO-only) wells.

SMILES | IC50 (HCT-116) [nM] | IC50 (H460) [nM] | AUC(0-t) [2] [ng·h/mL] | clearance ([2]; read-out: Plasma CL) [mL/min/kg] | IC50 (HCT116) [nM] | IC50 (A549) [nM] | IC50 (MCF7) [nM] | IC50 (PLK1 kinase domain) [nM] | IC50 [1] [nM] | IC50 (RKO) [nM] | IC50 (MX-1) [nM]
COc1cc2ncn(-c3cc(OC(C)c4ccccc4Cl)c(C(N)=O)s3)c2cc1OC (stereo not drawn) [PU4870 Ex 126, reference compound] | – | < 100 | – | – | < 100 | < 100 | > 1000 | – | 100 to 1000 | < 100 | –
COc1cc2ncn(-c3cc(OC(C)c4ccccc4C(F)(F)F)c(C(N)=O)s3)c2cc1OC (stereo not drawn) [PU4870 Ex 127, reference compound] | 100 to 1000 | < 100 | – | – | – | < 100 | 100 to 1000 | < 10 | > 1000 | < 100 | –

Further lines, with some results ahead:

IC50 (HCT-116) [nM] | IC50 (H460) [nM] | AUC(0-t) [2] [ng·h/mL] | clearance ([2]; read-out: Plasma CL) [mL/min/kg] | IC50 (HCT116) [nM] | IC50 (A549) [nM] | IC50 (MCF7) [nM] | IC50 (PLK1 kinase domain) [nM] | SMILES | IC50 [1] [nM] | IC50 (RKO) [nM] | IC50 (MX-1) [nM]
< 100 | < 100 | 1370 | 23.1 | < 100 | < 100 | – | – | C[C@@H](Oc1cc(-n2cnc3cc(-c4cn[nH]c4)ccc32)sc1C(N)=O)c1ccccc1C(F)(F)F [Example 5, 5-[5-(1H-Pyrazol-4-yl)-1H-benzimidazol-1-yl]-3-({(1R)-1-[2-(trifluoromethyl)phenyl]ethyl}oxy)-2-thiophenecarboxamide] | 100 to 1000 | < 100 | < 100
> 1000 | > 1000 | – | – | > 1000 | > 1000 | > 1000 | 10 to 1000 | COc1cc2c(cc1OCCCN1CCCC1=O)ncn2-c1cc(OCc2ccccc2C(F)(F)F)c(C(N)=O)s1 [PU4870 Ex 134, reference compound] | > 1000 | > 1000 | –
– | > 1000 | – | – | > 1000 | – | > 1000 | 10 to 1000 | NC(=O)c1sc(-n2cnc3cc(C(=O)NCCN4CCNC4=O)ccc32)cc1OCc1ccccc1C(F)(F)F [PU4870 Ex 156, reference compound] | > 1000 | > 1000 | –
